Measured values taken from patent publication US5338726A, “Endothelin converting enzyme inhibitors” (Abbott Laboratories, priority 1992, dated 1994).
Non-standard residues stand in square brackets, D forms with d. Residues, ends and D or L forms follow the SMILES beside them. *: point of attachment. Sta = CC(C)C[C@H](N)[C@@H](O)CC(=O)O; Isovaleryl = CC(C)CC(=O)*

Molecular target: endothelin converting enzyme (active Mono Q fractions of rat lung plasma membranes)
Assay: Endothelin converting enzyme activity in active Mono Q fractions
Type: biochemical
Conditions: read-out: IC50 for inhibition of endothelin converting enzyme activity
Description: (§1) Rat lung plasma membranes were prepared and assayed for endothelin converting enzyme activity as previously described (Biochem. Biophys. Res. Commun. 171 1291 (1990)).
Rat lung plasma membranes (400 mg) were solubilized by stirring at 4° C. for 45 minutes in 50 ml of 20 mM Tris-HCl, pH 7.7 containing 2 mM dithiothreitol and 46 mM NOG (Buffer C). The unsolubilized materials were removed by centrifugation at 60,000×g for 30 minutes. Solubilized materials were injected onto a Mono Q HR 10/10 column (Pharmacia) and eluted with concentration gradients of 0-1M NaCl in 240 ml of Buffer C at 4 ml/minute. (Endothelin converting enzyme active fractions were eluted from 0.07 to 0.14 M NaCl). Absorbance at 280 nm was monitored by a LKB 2150 UVICORD SD monitor. Fractions were analyzed for endothelin converting enzyme activity and by SDS-PAGE. Protein content was determined by the Bio-Rad Protein Assay kit.
The enzyme has an apparent molecular mass of 90 KD as estimated by SDS-PAGE or gel filtration and appears to be a single peptide protein. […] The enzyme may exist as isozymes with pIs at 6.2 and 6.3. […] The endothelin converting enzyme activity in active Mono Q fractions was inhibited by pepstatin A with an IC50 of 5 nM. […]

| IC50 | Compound |
| --- | --- |
| 5 nM | CC(C)CC(=O)N[C@H](C(=O)N[C@H](C(=O)N[C@@H](CC(C)C)[C@@H](O)CC(=O)N[C@@H](C)C(=O)N[C@@H](CC(C)C)[C@@H](O)CC(=O)O)C(C)C)C(C)C [pepstatin A] (Isovaleryl-VV[Sta]A[Sta]-OH) |

Molecular target: solubilized endothelin converting enzyme (P3 from rat lung)
Assay: ECE Inhibitor Screening Assay
Type: biochemical
Conditions: Big ET substrate, 30 minutes at 37° C., HPLC of ET-1 and Big ET, read-out: Inhibition of Endothelin Converting Enzyme IC50
Description: The above mixture without the test compound was used as the control.
Following a 15 minute preincubation at 37° C., benzyl succinate (100 μM), NaOAc, and Big ET (3 μg) were added. The mixture was incubated for 30 minutes at 37° C., followed by addition of pepstatin (40 μM) and 10% TFA to stop the reaction. The mixture was vortexed, centrifuged and the supernatant retained for HPLC determination of Big ET, ET-1 and CTF. […] Percent inhibiton calculations were made with reference to controls based on quantitation of the ET-1 and Big ET peaks at the end of the incubation period.

| IC50 | Compound |
| --- | --- |
| 17 nM | CCC(C)C(NC(=O)OC(C)(C)C)C(=O)NC(C(=O)NC(CC(C)C)C(O)CC(=O)NCC1CCCCC1)C(C)CC (stereo not drawn) [Example 35, N-Boc-Isoleucyl-Isoleucyl-Statyl Cyclohexylmethylcarboxamide] |
| 16 nM | CCC(C)C(NC(=O)C(CC1CCCCC1)NC(=O)OC(C)(C)C)C(=O)NC(CC(C)C)C(O)CC(=O)NCCN1CCOCC1 (stereo not drawn) [Example 42, N-Boc-Cyclohexylalanyl-Isoleucyl-Statyl N-(2-(Morpholin-4-yl)ethyl)Carboxamide] |
| 9.5 nM | CCC(C)C(NC(=O)C(CC1CCCCC1)NC(=O)OC(C)(C)C)C(=O)NC(CC(C)C)C(O)CC(=O)NCC(C)C (stereo not drawn) [Example 39, N-Boc-Cyclohexylalanyl-Isoleucyl-Statyl Isobutylcarboxamide] |
| 4 nM | CCC(C)C(NC(=O)C(CC(=O)OCc1ccccc1)NC(=O)OC(C)(C)C)C(=O)NC(C(=O)N[C@@H](Cc1ccc2ccccc2c1)[C@@H](O)[C@@H](O)CC(C)C)C(C)CC (stereo partly drawn) [Example 46, (2S,3R,4S)-2-{[N-Boc-Aspartyl(β-O-Benzyl)-Isoleucyl-Isoleucyl]amino}-1-(2-naphthyl)-3,4-dihydroxy-6-methylheptane] |

The remaining lines, values behind:

| Compound | IC50 |
| --- | --- |
| CCC(C)C(NC(=O)OC(C)(C)C)C(=O)NC(C(=O)NC(CC(C)C)C(O)CC(=O)NCCC(C)C)C(C)CC (stereo not drawn) [Example 34, N-Boc-Isoleucyl-Isoleucyl-Statyl Isoamylcarboxamide] | 19 nM |
| CCC(C)C(NC(=O)C(CC1CCCCC1)NC(=O)OC(C)(C)C)C(=O)N[C@@H](CC1CCCCC1)[C@@H](O)[C@@H](O)CC(C)C (stereo partly drawn) [Example 28] | 9 nM |
| CCC(C)C(NC(=O)OC(C)(C)C)C(=O)NC(C(=O)NC(CC(C)C)C(O)CC(=O)NCC(C)C)C(C)CC (stereo not drawn) [Example 14, N-Boc-Isoleucyl-Isoleucyl-Statyl Isobutylcarboxamide] | 8 nM |

Test system: solubilized endothelin converting enzyme (P3 from rat lung)
Assay: Endothelin converting enzyme activity of solubilized enzyme with protease inhibitors
Type: biochemical
Conditions: at 40 mM; solubilized ECE (P3 from rat lung)
Description: as §1
The enzyme has an apparent molecular mass of 90 KD as estimated by SDS-PAGE or gel filtration and appears to be a single peptide protein. […] The enzyme may exist as isozymes with pIs at 6.2 and 6.3. […] The endothelin converting enzyme activity in active Mono Q fractions was inhibited by pepstatin A with an IC50 of 5 nM. The-endothelin converting enzyme activity of solubilized endothelin converting enzyme (P3 from rat lung) is not inhibited at 40 mM by TLCK, aprotinin, PMSF, E-64, bestatin, phosphoramidon or thiorphan. The endothelin converting enzyme activity of active Mono Q fractions was stimulated by divalent metal cations in the order of Mn^+2 ≥Zn^+2 >Ca^+2 >Mg^+2 ≥Ba^+2 =Co^+2.

| inhibition of endothelin converting enzyme activity | Compound |
| --- | --- |
| not inhibited | CC(C)C[C@H](NC(=O)[C@@H](O)[C@H](N)Cc1ccccc1)C(=O)O [bestatin] |
| not inhibited | aprotinin |
| not inhibited | CC(C)C[C@H](NP(=O)(O)O[C@@H]1O[C@@H](C)[C@H](O)[C@@H](O)[C@H]1O)C(=O)N[C@@H](Cc1c[nH]c2ccccc12)C(=O)O [phosphoramidon] |
| not inhibited | CC(C)C[C@H](NC(=O)[C@H]1O[C@@H]1C(=O)O)C(=O)NCCCCN=C(N)N [Example E-64, E-64] |

The remaining lines, values behind:

| Compound | inhibition of endothelin converting enzyme activity |
| --- | --- |
| Cc1ccc(S(=O)(=O)NC(CCCCN)C(=O)CCl)cc1 (stereo not drawn) [TLCK] | not inhibited |
| O=C(O)CNC(=O)C(CS)Cc1ccccc1 (stereo not drawn) [thiorphan] | not inhibited |
| O=S(=O)(F)Cc1ccccc1 [PMSF] | not inhibited |
